Patent US10214724B2, “Methods for differentiation of human pluripotent stem cells to brain microvascular endothelial cells” (Wisconsin Alumni Research Foundation, priority 2016, dated 2019)

How the values were obtained:
[1] = test system: IMR90-4 induced pluripotent stem cells; experiment: Brachyury expression after CHIR99021 treatment (immunostaining, flow cytometry); type: cell-based, human; conditions: 6 μM, 24 hr treatment in DeSR1; IMR90-4 iPSCs
Description: Given the roles of canonical Wnt signaling in both mesoderm specification and BBB development, we first treated hPSCs with CHIR99021, a GSK-3β inhibitor and Wnt agonist, to direct hPSCs to mesoderm-derived endothelial progenitors. Prior to treatment, IMR90-4 induced pluripotent stem cells (iPSCs) were seeded on a Matrigel-coated six-well plate at a density of 35×10^3 cells/cm^2 and expanded in an undifferentiated state for three days in mTeSR1™ (FIG. 1A). […] After 24 hours, the medium was removed and cells were transitioned to DeSR2 (DeSR1 plus B27 supplement) for another five days with daily medium changes. At day 0, pluripotency was verified by OCT4, NANOG and TRA-1-60 immunostaining (FIGS. 1B-D). After 24 hr of CHIR99021 treatment, almost 100% of the cells expressed brachyury, assessed by immunostaining (FIG. 1E) and flow cytometry (FIG. 1F), indicating progression to primitive streak. […] At day 4, more than 90% of the cells expressed the intermediate mesoderm marker PAX2 (FIGS. 1G, 1H) and PAX2 expression peaked at day 6 (FIG. 5). […]
Cells were dissociated with Accutase™ and fixed in 1% PFA for 15 min at room temperature, then washed with 0.5% BSA (Bio-Rad) plus 0.1% Triton-X100 three times. […] Data were collected on a FACSCaliber flow cytometer (Beckton Dickinson) and analyzed using FlowJo. […]

[2] = test system: hPSC-derived BMECs; experiment: Flow cytometry of BMEC marker proteins (claudin-5, Pgp, occludin, ZO-1) with or without RA; type: cell-based, human
Source text: Data were collected on a FACSCaliber flow cytometer (Beckton Dickinson) and analyzed using FlowJo.

[3] = test system: tight junction related genes TJP1, CLDN5 and OCLN and efflux transporters ABCG2, ABCC1, and ABCB1; experiment: Quantitative RT-PCR of tight junction and transporter genes with or without RA; type: cell-based, human; conditions: 10 μM RA day 6 to day 8; qPCR at day 8
Description: Total RNA was extracted with the RNeasy mini kit (QIAGEN) and treated with DNase (QIAGEN). 1 μg total RNA was reverse transcribed into cDNA via Oligo (dT) with Superscript III Reverse Transcriptase (Invitrogen). Real-time quantitative PCR was done in triplicate with iQSYBR Green™ SuperMix (Bio-Rad). GAPDH was used as an endogenous housekeeping control.

[4] = test system: hPSC-derived BMECs; experiment: TEER of hPSC-derived BMECs on Transwells; type: cell-based, human; conditions: cells differentiated in the presence of RA; replated day 8, measured at day 10
Description: BMECs were differentiated as shown in FIG. 1A in the presence or absence of RA, as indicated. (A) At day 8 expression of tight junction and transporter genes was assessed by qPCR. (B) Flow cytometry for CD31 expression was performed at days 6 and 8. (C) Pgp expression was quantified by flow cytometry at day 10. At day 6, medium was switched to hESFM containing or lacking RA, as indicated. (D) At day 8, cells were replated onto Matrigel®-coated Transwell® membranes at 10^6 cells/cm^2 in the presence or absence of 10 μM Y27632 (ROCK inhibitor). Y27632 was added to increase attachment (Pipparelli et al., PloS one 2013, 8:e62095) of cells differentiated in the absence of RA and permit confluent monolayer formation. TEER was measured at day 10, two days after replating (D). (E, G) Occludin and (F, G) ZO-1 expression and localization were assessed by flow cytometry and immunostaining at day 10. Red arrows indicate non-uniform occludin or ZO-1. Claudin-5 expression at day 10 was assessed by flow cytometry (H, I). (I) At day 10, expression level of claudin-5 in BMECs differentiated in the presence or absence of RA were assessed by flow cytometry. (J) Localization and expression of claudin-5 of cells differentiated in the absence of RA was determined via immunostaining (white arrows indicate non-positive claudin-5 and red arrows indicate discontinuous claudin-5). […]

[5] = test system: hPSC-derived BMECs; experiment: ICAM-1 induction by TNF-α; conditions: 10 ng/mL TNF-α for 16 hours; day 10 hPSC-derived BMECs
Description: (D-F) ICAM-1 induction in hPSC-derived BMECs. hPSC-derived BMECs at day 10 were treated with 10 ng/mL of TNF-α for 16 hours. Cells were stained for ICAM-1 (D) before and (E) after TNF-α treatment. (F) Cells were dissociated or dissociated with Accutase™ and ICAM-1 expression quantified by flow cytometry before and after TNF-α treatment. […] Data were collected at least from three independent samples and are represented as mean±SEM. **p<0.01, ***p<0.001.

For Cc1c[nH]c(-c2cnc(NCCNc3ccc(C#N)cn3)nc2-c2ccc(Cl)cc2Cl)n1 [CHIR99021], the cells expressing brachyury [1] was ~100%.
With CC1=C(/C=C/C(C)=C/C=C/C(C)=C/C(=O)O)C(C)(C)CCC1 [RA, retinoic acid] the “cells expressing claudin-5” value ([2]; RA-treated cells, day 10, flow cytometry (around 60% in the absence of RA)) was 100%, the “cells expressing Pgp” value ([2]; differentiated in the presence of RA, day 10, flow cytometry) was ~100% and the “expression of TJP1, CLDN5, OCLN, ABCG2, ABCC1 and ABCB1 in cells exposed to RA vs. lacking RA” value [3] was 3-20 fold. For the same compound, the TEER [4] was ~4000 Ω·cm^2.
For TNF-α, the ICAM-1 expression [5] was “upregulation”.
